{
  "source": "paper PMC10410611",
  "about": "“Rhenium(I) Tricarbonyl Complexes of 1,10-Phenanthroline Derivatives with Unexpectedly High Cytotoxicity” (Inorganic Chemistry, 2023)",
  "key": {"PC3 cells [1]": {"system": "PC3 cells", "assay": "Cytotoxicity, Resazurin assay, normoxic conditions", "assay_type": "cell-based, human", "details": "for IC50: normoxic conditions (∼15% O2 level), 48 h, Resazurin, read-out: IC50 (μM) ± S.D. PC3", "procedure": "(§1) The standard Resazurin assay was performed to determine the cytotoxicity of the synthesized complexes. […] After 24 h of the initial incubation period, the medium was replenished by a fresh metal complex-containing medium (100 μL/well) and incubated for an additional 48 h. Initially, the metal complex was dissolved in DMSO and the target concentration was achieved by further dilution with the medium. […] Each of the reported IC50 values is the mean of three individual experiments with standard deviation, and each concentration was assayed in sextuplicate in each successive experiment."}, "RPE-1 cells": {"system": "RPE-1 cells", "assay": "Cytotoxicity, Resazurin assay, normoxic conditions", "assay_type": "cell-based, human", "details": "normoxic conditions (∼15% O2 level), 48 h, read-out: IC50 (μM) ± S.D. RPE-1", "procedure": "as §1"}, "PC3 cells [2]": {"system": "PC3 cells", "assay": "Cytotoxicity, Resazurin assay, hypoxic conditions", "assay_type": "cell-based, human", "details": "for Hypoxia resistance factor (ratio of IC50 in hypoxia and normoxia): PC3; for IC50: PC3, hypoxic conditions (2% O2), 48 h, Resazurin, read-out: IC50 (µM) ± S.D. Hypoxia", "description": "Initially, at least three consecutive cell passages were maintained in hypoxic conditions before starting any experiments."}, "[3]": {"system": "3D multicellular PC3 cell spheroids", "assay": "Cytotoxicity against 3D cell spheroid, AlamarBlue assay", "assay_type": "cell-based, human", "details": "average diameter 435 μm, 72 h, normoxic, read-out: IC50 against 3D multicellular PC3 cells spheroid", "procedure": "1 × 10^4 PC3 cells were seeded in each well of a Corning 96 Well Ultra-Low Attachment Treated Spheroid Microplate. After 96 h of incubation at 37 °C in normoxic conditions, the average spheroid size observed was 435 μm. Half of the medium was replaced by an equal volume of complex-containing (two times of target concentrations) medium. After 72 h, the cell viability was measured using the AlamarBlue assay. Finally, the IC50 values were determined by using GraphPad Prism 5 software after applying four parameter fitting."}, "ctDNA [4]": {"system": "ctDNA", "design": "method as in PMID 18467423", "details": "for ctDNA; cited from earlier work"}, "ctDNA [5]": {"system": "ctDNA", "assay": "DNA melting", "assay_type": "binding, calf", "details": "ctDNA 40 μM, compound 30 μM", "procedure": "The DNA binding ability of complex 6 was confirmed by measuring the DNA melting temperature prior to complex binding. Briefly, 40 μM ctDNA was incubated with 30 μM of the complex at 37 °C for 15 min. Afterward, the absorbance of the solution was measured at 260 nm in each °C increment in temperature within the range from 60–97 °C. A Cary UV 300 (Agilent Technologies) was used to measure all absorbances. The experiment was programmed with a 1 °C/min temperature ramp rate from the temperature range 60–97 °C, and the holding time was 1 min. Finally, the absorbance of each experiment was normalized to 0 and 1 and further compared with the melting temperature of native ctDNA."}, "[6]": {"details": "cited from earlier work"}},
  "data": [
    {"smiles": "N.N.[Cl][Pt][Cl]", "note": "[cisplatin, reference compound]", "values": [
      {"measurement": "selectivity (ratio between IC50 against RPE-1 and IC50 against PC3 cells)", "setting": "PC3 cells [1]; normoxic conditions", "value": 5},
      {"measurement": "IC50", "setting": "PC3 cells [1]", "value": "6.9 ± 0.5", "unit": "µM"},
      {"measurement": "IC50", "setting": "RPE-1 cells", "value": "36 ± 4", "unit": "µM"},
      {"measurement": "Hypoxia resistance factor (ratio of IC50 in hypoxia and normoxia)", "setting": "PC3 cells [2]", "value": "> 7"},
      {"measurement": "IC50", "setting": "PC3 cells [2]", "value": "> 50", "unit": "µM"},
      {"measurement": "IC50", "setting": "[3]", "value": 6.22, "unit": "µM"}
    ]},
    {"smiles": "Nc1n[n+]([O-])c2ccccc2[n+]1[O-]", "note": "[Tirapazamine, tirapazamine, reference compound]", "values": [
      {"measurement": "IC50", "setting": "PC3 cells [1]; Homo sapiens, PC-3", "value": "~100", "unit": "µM"},
      {"measurement": "cell killing in comparison to the control", "setting": "PC3 cells [1]; PC3, normoxia, maximum tested concentration 100 µM", "value": "around 50%"},
      {"measurement": "IC50", "setting": "PC3 cells [2]; Homo sapiens, PC-3", "value": "20.4 ± 3", "unit": "µM"},
      {"measurement": "Hypoxia resistance factor (ratio of IC50 in hypoxia and normoxia)", "setting": "PC3 cells [2]", "value": 0.2}
    ]},
    {"smiles": "CC[n+]1c(-c2ccccc2)c2cc(N)ccc2c2ccc(N)cc21", "note": "[EB, ethidium bromide, reference compound]", "values": [
      {"measurement": "binding constant of EB (KEB)", "setting": "ctDNA [4]", "value": "1 × 10^7 M^–1"},
      {"measurement": "shift of ctDNA melting temperature (ΔTm)", "setting": "ctDNA [5]", "value": "4 ± 0.1", "unit": "°C"}
    ]},
    {"smiles": "O.O=c1cccccc1[O][Re].[C-]#[O+].[C-]#[O+].[C-]#[O+]", "note": "[fac-[Re(CO)3(Trop)(H2O)]]", "values": [
      {"measurement": "pKa", "setting": "[6]", "value": "8.96 ± 0.02"}
    ]}
  ]
}
